Like-named read-outs stand apart in the source and are kept apart here.
Assays:
HIV integrase = HIV integrase (Human immunodeficiency virus type 1 group M subtype B, UniProt P04585); assay: HIV IN assay; type: biochemical, HIV-1
[1] = biological target: HIV RT-associated RNase H (Human immunodeficiency virus type 1 group M subtype B, UniProt P04585); conditions: biochemical
[2] = read-out: Biochemical Inhibition INST IC50, as relisted in Table 2

Row | SMILES | IC50 (HIV integrase) [µM] | IC50 (HIV integrase; [2]) [µM] | selectivity of RNase H inhibition over INST inhibition [1] [fold]
1 | CCc1ccc(NC(=O)c2c(NCc3ccccc3)[nH]c(=O)n(O)c2=O)cc1 [Compound 10v, 6-(Benzylamino)-N-(4-ethylphenyl)-3-hydroxy-2,4-dioxo-1,2,3,4-tetrahydropyrimidine-5-carboxamide] | > 100 | > 100 | 
2 | O=C(Nc1ccc(-c2ccc(F)cc2)cc1)c1c(Nc2ccc(-c3ccccc3)cc2)[nH]c(=O)n(O)c1=O [Compound 10b, 6-([1,1′-Biphenyl]-4-ylamino)-N-(4′-fluoro-[1,1′-biphenyl]-4-yl)-3-hydroxy-2,4-dioxo-1,2,3,4-tetrahydropyrimidine-5-carboxamide] | > 100 |  | 
3 | COc1ccc(-c2ccc(NC(=O)c3c(Nc4ccc(-c5ccccc5)cc4)[nH]c(=O)n(O)c3=O)cc2)cc1 [Compound 10c, 6-([1,1′-Biphenyl]-4-ylamino)-3-hydroxy-N-(4′-methoxy-[1,1′-biphenyl]-4-yl)-2,4-dioxo-1,2,3,4-tetrahydropyrimidine-5-carboxamide] | > 100 |  | 
4 | O=C(Nc1ccc(-c2ccccc2)cc1)c1c(Nc2ccc(-c3ccccc3)cc2)[nH]c(=O)n(O)c1=O [Compound 10a, N-([1,1′-Biphenyl]-4-yl)-6-([1,1′-biphenyl]-4-ylamino)-3-hydroxy-2,4-dioxo-1,2,3,4-tetrahydropyrimidine-5-carboxamide] | > 100 |  | 
5 | O=C(Nc1ccc(-c2ccccc2)cc1)c1c(NCc2ccccc2)[nH]c(=O)n(O)c1=O [Compound 10o, N-([1,1′-Biphenyl]-4-yl)-6-(benzylamino)-3-hydroxy-2,4-dioxo-1,2,3,4-tetrahydropyrimidine-5-carboxamide] | > 100 | > 100 | 
6 | O=C(NCc1ccc(F)cc1)c1c(Nc2ccc(-c3ccccc3)cc2)[nH]c(=O)n(O)c1=O [Compound 10e, N-(4-Fluorobenzyl)-1-(hydroxy)-1,2,3,6-tetrahydro-2,6-dioxo-4-(biphenylamino)pyrimidine-5-carboxamide] | > 100 |  | 
7 | O=C(NCc1ccc(F)cc1F)c1c(Nc2ccc(-c3ccccc3)cc2)[nH]c(=O)n(O)c1=O [Compound 10i, N-(2,4-Difluorobenzyl)-1-(hydroxy)-1,2,3,6-tetrahydro-2,6-dioxo-4-(biphenylamino) pyrimidine-5-carboxamide] | > 100 | > 100 | 
8 | O=C(NCc1ccc(-c2ccccc2)cc1)c1c(NCc2ccccc2)[nH]c(=O)n(O)c1=O [Compound 10p, N-([1,1′-Biphenyl]-4-ylmethyl)-6-(benzylamino)-3-hydroxy-2,4-dioxo-1,2,3,4-tetrahydropyrimidine-5-carboxamide] | > 100 | > 100 | 
9 | O=C(NCc1ccccc1F)c1c(Nc2ccc(-c3ccccc3)cc2)[nH]c(=O)n(O)c1=O [Compound 10g, N-(2-Fluorobenzyl)-1-(hydroxy)-1,2,3,6-tetrahydro-2,6-dioxo-4-(biphenylamino)pyrimidine-5-carboxamide] | > 100 |  | 
10 | O=C(NCc1cccc(Cl)c1F)c1c(Nc2ccc(-c3ccccc3)cc2)[nH]c(=O)n(O)c1=O [Compound 10h, N-(3-Chloro-2-fluorobenzyl)-1-(hydroxy)-1,2,3,6-tetrahydro-2,6-dioxo-4-(biphenylamino)pyrimidine-5-carboxamide] | > 100 |  | 
11 | O=C(Nc1ccc(C(F)(F)F)cc1)c1c(NCc2ccccc2)[nH]c(=O)n(O)c1=O [Compound 10y, 6-(Benzylamino)-3-hydroxy-2,4-dioxo-N-(4-(trifluoromethyl)phenyl)-1,2,3,4-tetrahydropyrimidine-5-carboxamide] | > 100 | > 100 | 
12 | O=C(NCc1cc(F)ccc1F)c1c(Nc2ccc(-c3ccccc3)cc2)[nH]c(=O)n(O)c1=O [Compound 10j, N-(2,5-Difluorobenzyl)-1-(hydroxy)-1,2,3,6-tetrahydro-2,6-dioxo-4-(biphenylamino) pyrimidine-5-carboxamide] | > 100 | > 100 | 
13 | O=C(Nc1ccc(-c2ccccc2)cc1)c1c(NCc2ccc(-c3ccccc3)cc2)[nH]c(=O)n(O)c1=O [Compound 10k, N-([1,1′-Biphenyl]-4-yl)-6-(([1,1′-biphenyl]-4-ylmethyl)amino)-3-hydroxy-2,4-dioxo-1,2,3,4-tetrahydropyrimidine-5-carboxamide] | > 100 | > 100 | 
14 | O=C(Nc1ccccc1)c1c(NCc2ccccc2)[nH]c(=O)n(O)c1=O [Compound 10q, 6-(Benzylamino)-3-hydroxy-2,4-dioxo-N-phenyl-1,2,3,4-tetrahydropyrimidine-5-carboxamide] | > 100 | > 100 | 
15 | O=C(NCc1cccc(F)c1)c1c(Nc2ccc(-c3ccccc3)cc2)[nH]c(=O)n(O)c1=O [Compound 10f, N-(3-Fluorobenzyl)-1-(hydroxy)-1,2,3,6-tetrahydro-2,6-dioxo-4 (biphenylamino)pyrimidine-5-carboxamide] | > 100 | > 100 | 
16 | O=C(Nc1ccccc1)c1c(NCc2ccc(-c3ccccc3)cc2)[nH]c(=O)n(O)c1=O [Compound 10m, 6-(([1,1′-Biphenyl]-4-ylmethyl)amino)-3-hydroxy-2,4-dioxo-N-phenyl-1,2,3,4-tetrahydropyrimidine-5-carboxamide] | > 100 | > 100 | 
17 | O=C(NCc1ccc(-c2ccccc2)cc1)c1c(NCc2ccc(-c3ccccc3)cc2)[nH]c(=O)n(O)c1=O [Compound 10l] | > 100 | > 100 | 
18 | O=C(NCc1ccccc1)c1c(Nc2ccccc2)[nH]c(=O)n(O)c1=O [Compound 10s, N-Benzyl-1-(hydroxy)-1,2,3,6-tetrahydro-2,6-dioxo-4-(phenylamino)pyrimidine-5-carboxamide] |  |  | ~4

From publication PMC5526604 (Journal of medicinal chemistry, 2017)
